For 90 compounds, melting point results are on record in a melting point compilation (Tetko et al.; mined from patent text by program, amines drawn as free bases though some values may be those of a salt).

`Cc1oc(-c2ccccc2)nc1CCOc1ccc(CC(C(N)=O)C(=O)O)cc1` (stereo not given) came in with a melting point of 138 °C. For `COc1ccc(S)nn1` the value was 198 to 200 °C. The figure for `COc1ccc2c3c(ccc2c1)CC(=O)C3` is 138 to 140 °C; for `COc1ccc(C(=O)Nc2c(Cl)cc(CO)cc2Cl)cc1OC1CCCC1` it is 174 to 176 °C; for `Cn1c(=O)cc(CBr)c2ccccc21` it is 188 to 190 °C.

In turn, `Cc1c(-c2ccc(F)cc2F)ncnc1C(F)F` returned a melting point of 54 to 55 °C. Regarding `Cc1ccc(C)c(C2C(=O)Oc3c2cc(C(C)(C)C)cc3C(C)(C)C)c1` (stereo not given), the melting point is 93 to 97 °C.

In the case of `c1ccc(-n2ncnc2-c2ccncc2)cc1`, the melting point was 92 to 94 °C. In turn, `O=C(NCCO)/C(=C/c1ccc(OCC(F)(F)F)cc1)NC(=O)c1ccc(OCCC2CC2)cc1` displayed a melting point of 173 to 175 °C.

For the compound `N#Cc1cc(F)c(-n2nc3ccc(Cl)cn3c2=O)cc1O`, the melting point was above 260 °C.

The compound `CC(=O)NCC1CC1c1cccc2nc(C(F)(F)F)cn12` (stereo not given) yielded a melting point of 135 to 137 °C.

Compound `CCCCCCCCCCCCc1ccc(CO)cc1` registered a melting point of 44 to 45 °C. `CNc1c(F)c(O)c2c(=O)c(C(=O)O)cn(-c3cc(N)c(F)cc3F)c2c1C` had a melting point above 280 °C. For `Cc1noc(NS(=O)(=O)c2sc3ccc(Cl)cc3c2C)c1Br` the value was 153 to 155 °C; for `CCCCOC1(N)C=CC(NC(=O)CBr)=CC1` (stereo not given), 131 to 134 °C.

With `O=[N+]([O-])c1c(F)c(F)c(O)c(Cl)c1F`, the melting point lay within 107 to 109 °C.

Regarding `CCCCCCCCCCCCOc1cc(C#N)c(C#N)cc1OCCOCCOCCOC`, the melting point fell in the range of 38 to 40 °C.

Compound `CCN(CC)CCNC(=O)c1cc(Cl)c(N)cc1OCC(=O)C(C)C` displayed a melting point of 109 to 110 °C. Take `C[C@H](NC(=O)CCCCc1ccccc1)C(=O)N[C@H](CCC(=O)O)C(=O)O`: the melting point is 135 to 140 °C. For `Cc1ccc(NC(=O)c2cccc(N3CCOCC3)c2)cc1NC(=O)c1cccc(OC2CCNCC2)c1` the value was 162 to 166 °C; for `C/C(=C\CC1OC(=O)NC1=O)c1cccc(OCCc2nc(-c3ccccc3)oc2C)c1` (stereo not given), 100 to 101 °C; for `CNC(=S)C1(c2cccnc2)CCCCCC1=O` (stereo not given), 144 to 146 °C. `Nc1c(C(=O)c2cccc(Cl)c2)cc(Br)cc1[N+](=O)[O-]`: the melting point was 134 °C.

Consider `CC(C)CNC(=O)c1cc([N+](=O)[O-])cc([N+](=O)[O-])c1`, for which the melting point was 149 to 155 °C. As for `Cc1oc2ccccc2c1C(=O)O`, the melting point was in the range of 171 to 176 °C. On to `CSc1cc(C)nc(SC)c1NC(=O)CN1CCN(CCSc2nc3ccccc3s2)CC1`, for which the melting point is 136 to 139 °C. The figure for `Cc1nc(NC(=O)c2ccccc2)sc1C(=O)NNC(=O)c1ccccc1` is 258 to 260 °C; for `CC(=O)Nc1cc2c(cc1[N+](=O)[O-])OC(C)(C)[C@@H](O)[C@@H]2NC(=O)CCCCl` (relative stereo) it is 178 to 180 °C. Compound `O=S(=O)(NC(CO)(CO)CO)c1cncc(C#Cc2cnn3c(C(F)(F)F)cc(-c4ccc(C(F)(F)F)cc4)nc23)c1` displayed a melting point of 230 to 232 °C. The figure for `CCC(CC)(CC(=O)Nc1ccc2ccc(OCc3ccc4cccc(F)c4n3)cc2c1)C(=O)O` is 141 to 142 °C; for `Cc1cc(C2=NN=C(C#N)Cc3cc4c(cc32)OCO4)ccc1[N+](=O)[O-]` it is 211 to 214 °C; for `C=C=COc1ccc2ccc(OC=C=C)cc2c1` it is 80.5 to 83.5 °C. Turning to `CCNc1nc(SC)nc(SC)c1[N+](=O)[O-]`, the melting point was in the range of 149 to 150 °C. For `CCCCCCCCCCCCCCOc1ccc(C(=O)OC)cc1OC` the value was 50 to 51 °C. Consider `Cn1cnc2nc(C#Cc3ccccc3)nn2c1=S`, for which the melting point is 290 to 295 °C. For `COc1ccc(-c2ccc3c(C#N)c(OC)ccc3c2)cc1` the value was 182 to 185 °C; for `O=C(Nc1ccc2ccc(Cl)nc2n1)N1CC=CCC1`, 173 °C. For `COCCOc1ccc(CN)cc1O` the value was 89 to 90 °C; for `O=C(N[C@H]1CC[C@H](CCN2CCN(c3nccc4c3OCC4)CC2)CC1)c1ccc(C(F)(F)F)cc1`, 242 °C; for `CCCCc1oc2ccccc2c1C(=O)N(C)Cc1ccc(-c2ccc(OC(Cc3ccccc3)C(=O)O)c(Br)c2)cc1` (stereo not given), 79 to 86 °C.

Take `O=C(NC(=O)c1c(F)cccc1F)Nc1cc(F)c(C(F)(F)F)c(F)c1`: the melting point was determined as 231 °C. Compound `CCCOc1ccc(NC(=O)N2CCN(c3ncnc4cc(OC)c(OC)cc34)CC2)cc1` returned a melting point of 218 to 220 °C. Compound `CS(=O)(=O)c1ccc(Oc2ccc(OCC#N)cc2)cc1` registered a melting point of 114 to 116 °C.

Regarding `COc1ccc2ccc(CC3=NOS(=O)N3)cc2c1` (stereo not given), the melting point is 146 to 147 °C. For `CN1C(=O)CC[C@]2(C)c3ccc(-c4cccc(NC(c5ccccc5)c5ccccc5)c4)cc3CC[C@@H]12` the value was 109 to 111 °C. As for `Nc1ncc(Br)n2nc(SCc3ccccc3)nc12`, the melting point is 149 to 150 °C.

Turning to `CC(=O)OCC1OC(n2cc(S)c(=O)[nH]c2=O)CC1(O)C(C)=O` (stereo not given), the melting point fell in the range of 159 to 163 °C. Take `CCCCn1c(=O)c(-c2c(Cl)cccc2Cl)cc2cnc(N)nc21`: the melting point was 202 to 205 °C. With `Nc1ccc2[nH]c(C(=O)N3CC(CCl)c4c3cc(N)c3ccccc43)cc2c1` (stereo not given), the melting point is above 300 °C.

`Cc1ccc(N2CCCN(c3cc[nH]c(=S)c3C#N)CC2)cc1[N+](=O)[O-]` registered a melting point of 277 to 278 °C. `COc1ccc2c(c1)[C@@]1(C(=O)O)CCCC[C@H]1CC2` (relative stereo) yielded a melting point of 171 to 173 °C. `CC1(C)C(C(=O)O)N2C(=O)C(NC(=O)Cc3ccccc3)C2S1=O` (stereo not given) displayed a melting point of 143 to 145 °C.

Compound `CC(=O)OCC1OC(n2c3ncccc3c3c4c(c5c6ccccc6[nH]c5c32)C(=O)N(C)C4=O)C(OC(C)=O)C(OC(C)=O)C1OC(C)=O` (stereo not given) gave a melting point of 302 to 304 °C. The figure for `COc1ccc(/C=C/CCCCOc2ccc(C(=O)CCCC(=O)O)cc2CCC(=O)O)cc1` is 113 to 114 °C; for `Clc1cc(N2CCCC2)nc(Cl)n1` it is 100 to 104 °C. On to `CC1=NC=C(c2ccc3c(c2)NC(=O)CO3)C(c2ccccc2)S1` (stereo not given), for which the melting point lay in the range of 187 to 189 °C. Compound `CCCC1(O)CCN(C)C(Cc2ccc(OC)cc2)C1(C)C` (stereo not given) returned a melting point of 85 to 102 °C. `COC(=O)CCc1cn(Cc2ccc(C(=O)OC(C)(C)C)cc2OC)c2cc(C(=O)NCC3CCCC3)ccc12`: the melting point fell in the range of 58 to 60 °C.

In turn, `OC1(c2cncnc2)CN2CCC1CC2` (stereo not given) came in with a melting point of 126 to 127 °C. For `N#CC1=C(C2CCCCC2=O)Nc2n[nH]cc2C1c1cccc2nonc12` (stereo not given) the value was above 270 °C. For `O=C(O)CCC(=O)c1ccc(O)c(Cl)c1` the value was 155 to 160 °C. Compound `Cc1cc(C(=O)O)c2c(c1)C(C(Cl)(Cl)Cl)OC(C(Cl)(Cl)Cl)O2` (stereo not given) displayed a melting point of 290 to 291 °C. Compound `CCc1ccc(-c2ccc(C(=O)c3ccccc3)cc2)cc1` displayed a melting point of 106 to 108 °C. The compound `CCOC(=O)C1=C(N)C(NCC(O)COCc2cccc(CN3CCCCC3)c2)=NS1(=O)=O` (stereo not given) displayed a melting point of 72 to 74 °C. Regarding `C=C(C)C(=O)NCC(=O)Nc1cc(Cl)c(C)c(Cl)c1O`, the melting point was in the range of 217 to 218 °C.

Compound `O=C(O)C(Cc1ccc(OCCn2c(=O)sc3cc(C(=NO)C4CC4)ccc32)cc1)OCC(F)(F)F` (stereo not given) yielded a melting point of 88 to 90 °C. As for `COc1cc(N)c2nccc(C)c2c1Oc1cccc(C(F)(F)F)c1`, the melting point fell in the range of 113 to 115 °C. The figure for `CCCC1CCCCc2c1oc(=O)c(C(c1ccccc1)C1CC1)c2O` (stereo not given) is 60 to 65 °C; for `O=S1(=O)N=C(NCC2CC2)Nc2ccc(Cl)cc21` it is 288 to 290 °C. For `NCCC(C(N)=O)c1ccc(O)cc1` (stereo not given) the value was 168 to 170 °C; for `O=c1[nH]c2cc(Cl)cc(Cl)c2c(=O)n1Cc1ccccc1F`, 275 to 278 °C. For `CCCCCCCCCCCCCCCCCCNC(=O)C=Cc1ccc(O)cc1` the value was 114 °C; for `CC(C)(C)OC(=O)N[C@@H](Cc1ccccc1)[C@H]1CO1`, 126 °C; for `O=Cc1ccc(OCCCC(=O)O)c(Cl)c1`, 128 to 131 °C.

Compound `COC(=O)CCCC(=O)c1ccc(CCNC(C)=O)cc1` had a melting point of 107 to 108 °C.

In turn, `CCc1cc2c(s1)N(C)C(=O)C(OC(=O)Nc1cccc(C)c1)N=C2c1ccccc1Cl` (stereo not given) came in with a melting point of 181 to 182 °C.

On to `Cc1nnc(C(CCN2CC3CC4CC(C3)CC2C4)(c2ccccc2)c2ccccc2)o1`, for which the melting point was in the range of 120 to 121 °C. For `CC(=O)c1ccc(S(=O)(=O)Nc2cccnc2)cc1`, the melting point was in the range of 182 to 183 °C. The figure for `COc1cc2cc(C(N)=O)c(N)nc2cc1OC` is 275 °C. On to `O=c1sc(=Nc2ccc(Cl)cc2)n2n1CCCC2`, for which the melting point was in the range of 82 to 85 °C.

Turning to `COc1ccc(/C=C/C(=O)/C=C/c2ccc(OC)c(O)c2)cc1O`, the melting point lay in the range of 195 to 197 °C. For `Cn1nc(-c2cnc3[nH]cc(C(=O)NC4CCOC4)c3n2)c2ccc(Cl)cc21` (stereo not given) the value was 345 to 347 °C; for `Nc1sc2c(c1C(=O)c1ccc3c(c1)Cc1ccccc1-3)CCCC2`, 146 to 149 °C; for `O=c1[nH]c2ccccc2n1OCc1ccccc1`, 92 to 95 °C. The figure for `CC(C)(C)N1C(=O)c2cc([N+](=O)[O-])cnc2C1=O` is 170 to 173 °C; for `CC(=O)N(O)C(C)c1ccc2c(c1)Cc1ccccc1-2` (stereo not given) it is 168 to 171 °C. For `CCCCc1nc(Cl)c(CC(=O)O)c(Cc2ccc(-c3ccccc3-c3nnn[nH]3)cc2)n1` the value was 180 °C; for `CN1CCC(c2c[nH]c3ccc(N)cc23)C(F)C1` (stereo not given), 105 to 107 °C; for `O=[N+]([O-])c1ccc(N2CCCNCC2)cc1`, 115 to 116 °C. The compound `CC(=O)NCC(=O)c1cccc(Cl)c1Cl` showed a melting point of 107 to 109 °C.
